Legend:
Type in all cases: in vivo, mouse
[1] = test system: fatty acid oxidation (acylcarnitines) in heart; experiment: Cardiac acyl-carnitine profiling (LC/MS)
Method: Cardiac acyl-carnitines. Metabolites were extracted from frozen heart tissue (10 mg) by precipitating in 80:20% methanol:water following the addition of 1 ug/ml internal standard (C16 palmitoylcarnitine, d3, Cambridge Isotope Laboratories, Inc.). After centrifugation, the supernatant was transferred to LC/MS auto sampler vials (Thermo Fisher). The protein pellet was redissolved in 0.1 M NaOH and protein concentration measured for normalization.
Acyl-carnitines were analyzed using a Triple TOF—5600 (AB Sciex) series mass spectrometer in line with a Water Acquity I-class UPLC. Chromatographic separation was achieved using an Acquity UPLC BEH HILIC, 1.7 micron, 2.1×100 mm column (Waters) with a flow rate of 0.5 ml/min. Total run time was 22 minutes. The mobile phase was composed of two solvents: A=5 mM Ammonium Acetate in 95:5 acetonitrile:water and B=5 mM Ammonium Acetate in 50:50 acetonitrile:water using the following gradient.
Samples were analyzed in positive electrospray ionization (ESI+) with a mass range from 50-1000 Da. […] Additional acyl-carnitines were identified by their m/z value as compared to theoretical values determined by the molecular formula ±0.003 D. Peak areas intensities were normalized to protein concentration.

cardiac mitochondria = experiment: Isolated cardiac mitochondria respiration (oxygen electrode); settings: both genotypes
Method: Mitochondrial Isolation from cardiac tissue. Hearts were excised from mice, the aortas and atria were removed. Heart tissues were rinsed briefly in ice-cold mitochondria isolation medium (MIM) (70 mM sucrose, 220 mM mannitol, 5 mM MOPS, 1 mM EDTA, 0.025% fatty acid-free BSA, pH 7.4 with 5M KOH) to remove residual blood. Tissues were minced on ice and resuspended in fresh MIM, followed by trypsin digestion (10 ug/ml) and incubated on ice for 10 min. Trypsin digestion was stopped by the addition of trypsin inhibitor (0.5 mg/ml) and additional BSA (1 mg/ml) to MIM. The tissue pellets were resuspended in fresh MIM containing 1 mg/ml BSA, and transferred to a Teflon-glass tube and homogenized on ice with a Teflon pestle. The homogenates were centrifuged for 10 min at 800×g at 4° C. The supernatants were collected and centrifuged for 10 min at 8,000×g at 4° C. The supernatant was discarded and the mitochondrial pellets were resuspended in MIM to wash. The resuspension was centrifuged for 10 min at 8,000×g at 4° C., and the supernatant discarded. The mitochondrial pellet was resuspended to a concentrated volume for protein quantification by BCA Assay (Pierce).
Mitochondrial respirations. Isolated mitochondria respiration experiments were performed in an Clark type oxygen electrode Oxytherm System (Hansatech Instruments) at 30C. Briefly, freshly isolated mitochondria were added to respiration buffer (125 mM KCl, 20 mM HEPES, 3 mM MgCl2, 400 μM EGTA, 5 mM KH2PO4, 0.2% BSA (fatty acid free), pH 7.2) and placed in the respiration chamber to measure baseline respiration (State 1). The change in oxygen levels following the immediate addition of substrates (pyruvate/malate (5 mM/2 mM) or palmitoylcarnitine/malate (50 μM/2 mM) (State 2) followed by the sequential addition of 2.5 mM ADP (State 3), […] Oligomycin (State 4p) and 1 μM FCCP (FCCP Max). Antimycin A (2.5 μM) was added last to measure the residual oxygen consumption not accounted for by the electron transfer chain and it was subtracted from the previous measurements.

[2] = test system: NAD(H) levels in hearts and livers; experiment: Heart and liver NAD+/NADH after oral or IP NR administration (Experimental Example 2)
Method: Mice 2-4 months old were used, weighing 25 to 27 g, with water intake ranging from 3.5 to 6.5 ml/day. To each mouse, either NR as an NAD precursor was administered daily or vehicle was administered daily, for up to 10 days, either by IP injection or orally by drinking water. Saline was used as vehicle for IP injection. For oral administration, vehicle was unmodified drinking water. NR was supplied substantially as in Experimental Example 1. For IP administration, NR was diluted in sterile, pharmaceutical-grade isotonic saline at concentrations based on weight-based dosing per subject to provide respective 500 mg/kg body weight daily doses as administrated by IP injection. Additionally, for oral administration, NR was dissolved in sterile filtered water at concentrations based on weight-based dosing per subject to provide respective 400 mg/kg body weight daily doses, provided for drinking adlibitum. […] Over the first several days of oral administration of NR solutions, the consumption of NR water was monitored daily to verify that mice are not finding the NR water unpalatable and becoming dehydrated. […] NAD^+ and NADH were determined in approximately 6 mg heart tissue and approximately 6 mg liver tissue using BioAssay Systems EnzyChrom NAD^+/NAD Assay Kit ([…]-100) per manufactures instructions.

NC(=O)c1ccc[n+]([C@@H]2O[C@H](CO)[C@@H](O)[C@H]2O)c1 [NR, Nicotinamide riboside chloride]
Tissue content of lipid derived acylcarnitines and hydroxy-acylcarnitines ([1]; NR treated TAC hearts, to level similar to WT-Sham): increased | C16 (palmitoylcarnitine) levels ([1]; WT and Sirt3ko NR treated TAC hearts vs vehicle): increased | Mitochondrial respiratory function (State 3 respiration) (cardiac mitochondria; TAC, Complex I substrates): improved | Palmitoylcarnitine (PLC) supported State 3 respiration (ADP stimulated) (cardiac mitochondria; cardiac mitochondria from ISO treated hearts, NR): restored | Increase of NAD(H) in hearts and livers, IP injection over oral administration ([2]; IP 500 mg/kg daily 10 days vs oral 400 mg/kg daily 3 or 7 days): greater increases | Levels of NAD(H) in hearts and livers ([2]; oral 400 mg/kg daily 3 or 7 days, IP 500 mg/kg daily 10 days): increased
